# Experimental data taken from US8071810B2, “C5a receptor antagonists” (Jerini AG, priority 2005, dated 2011).
# Target: T1, human C5a receptor (CD88) (Homo sapiens, UniProt P21730)
# T1 construct: expressed in transfected cells; host or cells: rat basophilic leukemia (RBL) cells, stably transfected
# T1 sequence (P21730 1-350): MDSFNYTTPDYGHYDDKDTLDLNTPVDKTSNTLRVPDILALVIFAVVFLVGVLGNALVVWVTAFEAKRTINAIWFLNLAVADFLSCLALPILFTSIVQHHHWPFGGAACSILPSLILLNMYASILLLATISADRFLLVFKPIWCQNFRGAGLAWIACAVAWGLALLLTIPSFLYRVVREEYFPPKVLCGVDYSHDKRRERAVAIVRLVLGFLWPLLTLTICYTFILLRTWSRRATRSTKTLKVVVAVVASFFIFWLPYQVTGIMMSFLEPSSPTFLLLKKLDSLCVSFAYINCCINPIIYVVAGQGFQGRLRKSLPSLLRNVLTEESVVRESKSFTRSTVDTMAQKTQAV
# Test: C5a induced enzyme (glucosaminidase) release assay in RBL cells expressing the human C5a receptor (Example 28)
# Assay type: cell-based
# Settings: RBL cells with human C5aR; read-out: IC50 for the inhibition of C5a induced enzyme release
# Procedure: Basophile leukemia cells from rats (RBL), which express the human C5a receptor (CD88), are cultivated in DMEM with 10% fetal calf serum, 100 U/ml penicillin, 100 μg/ml streptomycin and 2 mM glutamin (all constituents are from Biochrome, Berlin) at 37° C. and with 10% CO2 until a confluent layer is obtained. All following details refer to a tissue culture flask with 75 cm^2 surface. The used up medium is removed. The cells are washed with 10 ml PBS (Dulbecco's PBS, Biochrome) and then covered with 3 ml cell dissociation solution (CDS, Sigma). The cells are incubated for 1 minute at room temperature. Then the CDS is removed and the cells are incubated for further 10-15 minutes at 37° C. to detach the cells completely from the flask. 20 μl solution of the compound to be testet are used in the assay. […] The dilution series are prepared in ⅓ or ½ steps. […] The cells are counted and centrifuged (200 g, 10 min). The cell pellet is taken up with pre-heated HAG-CM, and the cell density is adjusted to 2×10^6 Zellen/ml. The cells are incubated for 5 minutes at 37° C. 2.7 μl of a cytochalasin B solution (1000 μg/ml in DMSO, Sigma) are added per ml cell suspension. The Zellen are incubated for another 3 min at 37° C. Then, 75 μl of the cell suspension are added to the 20 μl solution containing the compounds to be tested. […] The cells are again incubated for 10 minutes at 37° C. […] After this the plates are put on ice and centrifuged for 3 minutes at 1200×g and 4° C. […] The plate is incubated for 1 hour at 37° C. […] The IC50 value is determined by solving the four parameter equation y=((A−D)/(1+(x/C)^B))+D.
row,Structure (SMILES),IC50 [nM]
1,"CCc1c(N)cc(Cl)c(CC)c1NC(=O)N(c1ccc(C(C)C)cc1)[C@@H](C)c1ccc(F)cc1 [(S)-3-(3-Amino-5-chlor-2,6-diethyl-phenyl)-1-[1-(4-fluor-phe]",38
2,"CCc1c(N)cc(Cl)c(CC)c1NC(=O)N(c1ccc(C(C)C)cc1)[C@@H](C)c1ccc(OC)cc1 [compound 66, (S)-3-(3-amino-5-chloro-2,6-diethyl-phenyl)-1-(4-isopropyl-phenyl)-1-[1-(4-methoxy-phenyl)-ethyl]-urea]",55
3,"CCc1c(N)cc(Cl)c(CC)c1NC(=O)N(c1ccc(C(C)C)cc1)[C@@H](C)c1ccc(C)cc1 [(S)-3-(3-Amino-5-chlor-2,6-diethyl-phenyl)-1-(4-isopropyl-ph]",32
4,CCc1c(N)cc(Cl)c(CC)c1NC(=O)N(c1ccc(NC)cc1)[C@@H](C)c1ccc(Cl)cc1,3
5,CCc1c(N)cc(Cl)c(CC)c1NC(=O)N(c1ccc(OC)cc1F)[C@@H](C)c1ccc(Cl)cc1,31

# Same assay, conditions: inhibition of C5a induced enzyme release, RBL cells with human C5aR; read-out: Activity-range (antagonistic activity, IC50 enzyme release)
row,Structure (SMILES),IC50 [nM]
1,"CCc1c(N)cc(Cl)c(CC)c1NC(=O)N(Cc1ccc(Cl)cc1)c1ccc(OC)c(OC)c1 [compound 114, 3-(3-amino-5-chloro-2,6-diethyl-phenyl)-1-(4-chloro-benzyl)-1-(3,4-dimethoxy-phenyl)-urea]",200 to 5000
2,"CCc1c(N)cc(Cl)c(CC)c1NC(=O)N(Cc1ccc(Cl)cc1)c1ccc(N(C)C)cc1 [compound 127, 3-(3-amino-5-chloro-2,6-diethyl-phenyl)-1-(4-chloro-benzyl)-1-(4-dimethylamino-phenyl)-urea]",200 to 5000
3,"CCc1ccc(N)c(CC)c1NC(=O)N(Cc1ccc(C)cc1)c1ccc(C(C)C)cc1 [compound 39, 3-(3-amino-2,6-diethyl-phenyl)-1-(4-isopropyl-phenyl)-1-(4-methyl-benzyl)-urea]",200 to 5000
4,"CCc1c(N)cc(Cl)c(CC)c1NC(=O)N(c1ccc([S+](C)[O-])cc1)[C@@H](C)c1ccc(Cl)cc1 (stereo partly drawn) [compound 95, (S)-3-(3-amino-5-chloro-2,6-diethyl-phenyl)-1-[1-(4-chloro-phenyl)-ethyl]-1-(4-methanesulfinyl-phenyl)-urea]",200 to 5000
5,"CCc1c(N)cc(Cl)c(CC)c1NC(=O)N(Cc1ccccc1)c1ccc(NC)cc1 [compound 129, 3-(3-amino-5-chloro-2,6-diethyl-phenyl)-1-benzyl-1-(4-methylamino-phenyl)-urea]",60 to 200
6,"CCc1c(N)cc(Cl)c(CC)c1NC(=O)N(Cc1ccc(C)nc1)c1ccc(OC)cc1F [compound 124, 3-(3-amino-5-chloro-2,6-diethyl-phenyl)-1-(2-fluoro-4-methoxy-phenyl)-1-(6-methyl-pyridin-3-ylmethyl)-urea]",200 to 5000
7,"CCc1ccc(N(Cc2ccc3c(c2)ncn3C)C(=O)Nc2c(CC)c(N)cc(Cl)c2CC)cc1 [compound 118, 3-(3-amino-5-chloro-2,6-diethyl-phenyl)-1-(4-ethyl-phenyl)-1-(1-methyl-1H-benzoimidazol-5-ylmethyl)-urea]",200 to 5000
8,"CCc1c(N)cc(Cl)c(CC)c1NC(=O)N(Cc1ccc(OC)nc1)c1ccc(C(C)C)cc1 [compound 47, 3-(3-amino-5-chloro-2,6-diethyl-phenyl)-1-(4-isopropyl-phenyl)-1-(6-methoxy-pyridin-3-ylmethyl)-urea]",200 to 5000
9,"CCc1c(N)cc(Cl)c(CC)c1NC(=O)N(Cc1cnc(C)cn1)c1ccc(C(C)C)cc1 [compound 75, 3-(3-amino-5-chloro-2,6-diethyl-phenyl)-1-(4-isopropyl-phenyl)-1-(5-methyl-pyrazin-2-ylmethyl)-urea]",60 to 200
10,"CCc1ccc(N(C(=O)Nc2c(CC)c(N)cc(Cl)c2CC)C(C)c2ccc(C)nc2)cc1 (stereo not shown) [compound 123, 3-(3-amino-5-chloro-2,6-diethyl-phenyl)-1-(4-ethyl-phenyl)-1-[1-(6-methyl-pyridin-3-yl)-ethyl]-urea]",60 to 200
11,"CCc1ccc(N(Cc2ccc(C#N)cc2)C(=O)Nc2c(CC)c(N)cc(Cl)c2CC)cc1 [compound 113, 3-(3-amino-5-chloro-2,6-diethyl-phenyl)-1-(4-cyano-benzyl)-1-(4-ethyl-phenyl)-urea]",200 to 5000
12,"CCc1c(N)cc(Cl)c(CC)c1NC(=O)N(Cc1ccc(Cl)cc1)c1ccc(OC)c2nc(C)c(C)nc12 [compound 130, 3-(3-amino-5-chloro-2,6-diethyl-phenyl)-1-(4-chloro-benzyl)-1-(8-methoxy-2,3-dimethyl-chinoxalin-5-yl)-urea]",200 to 5000
13,"CCc1c(N)cc(Cl)c(CC)c1NC(=O)N(Cc1ccc(OC)cc1F)c1ccc(C(C)C)cc1 [compound 58, 3-(3-amino-5-chloro-2,6-diethyl-phenyl)-1-(2-fluoro-4-methoxy-benzyl)-1-(4-isopropyl-phenyl)-urea]",200 to 5000
14,"CCc1c(N)cc(Cl)c(CC)c1NC(=O)N(Cc1ccc(Cl)cc1)c1cccc2ccccc12 [compound 108, 3-(3-amino-5-chloro-2,6-diethyl-phenyl)-1-(4-chloro-benzyl)-1-naphthaline-1-yl-urea]",200 to 5000
15,"CCc1ccc(N)c(CC)c1NC(=O)N(Cc1ccc(OC)nc1)c1ccc(C(C)C)cc1 [compound 48, 3-(3-amino-2,6-diethyl-phenyl)-1-(4-isopropyl-phenyl)-1-(6-methoxy-pyridin-3-ylmethyl)-urea]",200 to 5000
16,"CCc1c(N)cc(Cl)c(CC)c1NC(=O)N(Cc1ccc(C)nc1)c1ccc(C(C)C)cc1 [compound 76, 3-(3-amino-5-chloro-2,6-diethyl-phenyl)-1-(4-isopropyl-phenyl)-1-(6-methyl-pyridin-3-ylmethyl)-urea]",60 to 200
17,"CCc1ccc(N(Cc2ccc(F)cc2)C(=O)Nc2c(CC)c(N)cc(Cl)c2CC)cc1 [compound 96, 3-(3-amino-5-chloro-2,6-diethyl-phenyl)-1-(4-ethyl-phenyl)-1-(4-fluoro-benzyl)-urea]",60 to 200
18,"COc1ccc(CN(C(=O)Nc2c(C(C)C)ccc(N)c2C(C)C)c2ccc(C(C)C)cc2)cc1 [compound 25, 3-(3-Amino-2,6-diisopropyl-phenyl)-1-(4-isopropyl-phenyl)-1-(4-methoxy-benzyl)-urea]",200 to 5000
19,"CCc1c(N)cc(Cl)c(CC)c1NC(=O)N(c1ccc(C(C)C)cc1)[C@H]1CCCc2ccccc21 [compound 42, (S)-3-(3-amino-5-chloro-2,6-diethyl-phenyl)-1-(4-isopropyl-phenyl)-1-(1,2,3,4-tetrahydro-naphthaline-1-yl)-urea]",60 to 200
20,"CCNc1ccc(CC)c(NC(=O)N(Cc2ccc(OC)cc2)c2ccc(C(C)C)cc2)c1CC [compound 142, 3-(2,6-diethyl-3-ethylamino-phenyl)-1-(4-isopropyl-phenyl)-1-(4-methoxy-benzyl)-urea]",> 5000
21,"CCc1c(N)cc(Cl)c(CC)c1NC(=O)N(c1ccc(NC)cc1)C(C)c1ccc2c(c1)ncn2C (stereo not shown) [compound 138, 3-(3-amino-5-chloro-2,6-diethyl-phenyl)-1-(4-methylamino-phenyl)-1-[1-(1-methyl-1H-benzoimidazol-5-yl)-ethyl]-urea]",60 to 200
22,"CCc1ccc(N(Cc2ccc(C)nc2)C(=O)Nc2c(CC)ccc(N)c2CC)cc1 [compound 107, 3-(3-amino-2,6-diethyl-phenyl)-1-(4-ethyl-phenyl)-1-(6-methyl-pyridin-3-ylmethyl)-urea]",200 to 5000

# Same assay, conditions: ratio of enzyme release IC50 values
row,Structure (SMILES),Times higher antagonistic activity of S configuration than (R) configuration (56)
1,"CCc1c(N)cc(Cl)c(CC)c1NC(=O)N(c1ccc(C(C)C)cc1)[C@@H](C)c1ccc(OC)cc1 [compound 66, (S)-3-(3-amino-5-chloro-2,6-diethyl-phenyl)-1-(4-isopropyl-phenyl)-1-[1-(4-methoxy-phenyl)-ethyl]-urea]",11
